Among the data in US10947213B1 (Merck Patent GmbH, priority 2015, dated 2021) are IC50 values, retold here.

Structures can show the parent of a compound that is named as a salt. Where only a bound is given, the exact number is not on record here.

The experiment deals with T1, TLR7/NFKb HEK cells (Homo sapiens, UniProt Q9NYK1).
T1 construct: expressed in transfected cells; host or cells: HEK cells (TLR7/NFKb reporter line)
T1 sequence (Q9NYK1 27-1049): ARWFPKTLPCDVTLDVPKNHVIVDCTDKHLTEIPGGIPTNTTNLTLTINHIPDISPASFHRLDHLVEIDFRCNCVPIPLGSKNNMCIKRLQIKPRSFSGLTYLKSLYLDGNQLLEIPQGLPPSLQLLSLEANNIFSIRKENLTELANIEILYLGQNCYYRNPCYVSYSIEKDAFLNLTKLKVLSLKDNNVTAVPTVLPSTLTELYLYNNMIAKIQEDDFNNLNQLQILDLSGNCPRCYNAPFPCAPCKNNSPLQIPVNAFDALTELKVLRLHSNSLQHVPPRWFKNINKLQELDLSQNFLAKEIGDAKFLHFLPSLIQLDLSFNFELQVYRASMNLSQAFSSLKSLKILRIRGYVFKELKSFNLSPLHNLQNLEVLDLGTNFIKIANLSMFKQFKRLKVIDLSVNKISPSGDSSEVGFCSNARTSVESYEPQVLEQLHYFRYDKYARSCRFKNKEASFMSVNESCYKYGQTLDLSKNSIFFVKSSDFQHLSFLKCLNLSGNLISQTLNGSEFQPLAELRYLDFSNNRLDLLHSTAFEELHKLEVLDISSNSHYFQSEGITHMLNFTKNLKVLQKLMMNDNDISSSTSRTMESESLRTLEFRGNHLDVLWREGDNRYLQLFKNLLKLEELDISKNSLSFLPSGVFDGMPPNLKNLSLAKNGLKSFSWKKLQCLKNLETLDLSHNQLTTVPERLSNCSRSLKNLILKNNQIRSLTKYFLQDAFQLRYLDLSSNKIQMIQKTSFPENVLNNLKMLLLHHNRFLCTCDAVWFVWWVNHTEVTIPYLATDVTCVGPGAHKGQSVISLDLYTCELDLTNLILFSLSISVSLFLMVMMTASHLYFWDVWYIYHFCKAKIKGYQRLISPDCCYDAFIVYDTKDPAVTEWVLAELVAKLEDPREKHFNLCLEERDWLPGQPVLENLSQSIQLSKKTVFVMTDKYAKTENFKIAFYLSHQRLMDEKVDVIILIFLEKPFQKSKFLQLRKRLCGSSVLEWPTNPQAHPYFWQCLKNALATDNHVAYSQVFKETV
In words: HEK Cell Assay (TLR7/NFKb reporter, Steady-Glo luciferase readout). The experiment is classed as cell-based. The following applies: 30 min compound preincubation, then R*48 agonist for 5 hours, read-out: Potency. The essentials:
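Steady-Glo luminescence after 5 h stimulation with R*48 agonist, following 30 min compound preincubation. Assay run in HEK cells carrying a TLR7/NFKb luciferase reporter, plated at 5000 cells/well and grown 24 h at 37° C (10% CO2) before treatment.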
Turning to `O=C(NC1CCN(CC2CC2)C1)C1CCN(c2ccc(C(F)(F)F)c3ncccc23)CC1` (single isomer, unassigned) [Compound 444], the IC50 was < 1000 nM.
The result for `C[C@H]1C[C@@H](N(C)C(=O)CC(C)(C)N)CN(c2ccc(C(F)(F)F)c3ncccc23)C1` [Compound 465, 3-Amino-3,N-dimethyl-N-[(3R,5S)-5-methyl-1-(8-trifluoromethyl-quinolin-5-yl)-piperidin-3-yl]-butyramide] reads < 1000 nM; that for `C[C@H]1C[C@@H](NC(=O)CN2CCN(C)CC2)CN(c2ccc(C(F)(F)F)c3nccnc23)C1` [Compound 259, N-[(3R,5S)-5-methyl-1-[8-(trifluoromethyl)quinoxalin-5-yl]piperidin-3-yl]-2-(4-methylpiperazin-1-yl)acetamide], < 1000 nM.
In the case of `CCC(C)CC(=O)N[C@@H]1C[C@H](C)CN(c2ccc(C#N)c3nccnc23)C1` (single isomer, unassigned) [Compound 151] it was < 1000 nM.
In the case of `CC(C)[C@H](O)C(=O)N[C@H]1C[C@@H](C(F)(F)F)CN(c2ccnc3nccnc23)C1` [Compound 90, (2S)-2-hydroxy-3-methyl-N-[(3S,5R)-1-[pyrido[2,3-b]pyrazin-8-yl]-5-(trifluoromethyl)piperidin-3-yl]butanamide hydrochloride] it was > 10000 nM; in that of `Cc1ncc(N2C[C@@H](C)C[C@@H](NC(=O)CC(C)(C)O)C2)c2cccnc12` [Compound 555, 3-Hydroxy-3-methyl-N-[(3R,5S)-5-methyl-1-(8-methyl-[1,7]naphthyridin-5-yl)-piperidin-3-yl]-butyramide], 1000 to 10000 nM; in that of `CN1CCC(NC2CC(C(F)(F)F)CN(c3ccc(C#N)c4nccnc34)C2)C1=O` (single isomer, unassigned) [Compound 225], 1000 to 10000 nM.
In the case of `N#Cc1ccc(N2CC(NC(=O)C(N)C(F)(F)F)CC(C3CC3)C2)c2nccnc12` (single isomer, unassigned) [Compound 178], the IC50 is 1000 to 10000 nM.
The result for `CCN(CC)CCNC(=O)C1CCN(c2ccc(C#N)c3nccnc23)CC1` [Compound 432, 1-(8-Cyano-quinoxalin-5-yl)-piperidine-4-carboxylic acid (2-diethylamino-ethyl)-amide] reads < 1000 nM; that for `CN1CCN(CC(=O)N[C@H]2C[C@@H](C(F)(F)F)CN(c3ccc(C#N)c4nccnc34)C2)CC1` (relative stereo) [Compound 229, cis-N-[1-(8-cyanoquinoxalin-5-yl)-5-(trifluoromethyl)piperidin-3-yl]-2-(4-methylpiperazin-1-yl)acetamide], < 1000 nM; that for `N#Cc1ccc(N2CC(NC(=O)C(N)C3CC3)CC(C(F)(F)F)C2)c2cccnc12` (mixture of isomers) [Compound 486, rac-(R)-2-Amino-N-[(3R,5S)-1-(8-cyano-quinolin-5-yl)-5-trifluoromethyl-piperidin-3-yl]-2-cyclopropyl-acetamide], < 1000 nM.
The result for `COc1ccc(N2C[C@@H](C)C[C@@H](NC(=O)C(N)C(F)(F)F)C2)c2cccnc12` (single isomer, unassigned) [Compound 192] reads 1000 to 10000 nM.
The result for `CC(C)C(C)C(=O)N[C@@H]1C[C@H](C)CN(c2ccnc3nccnc23)C1` (stereo partly drawn) [Compound 168, 2,3-dimethyl-N-[(3R,5S)-5-methyl-1-[pyrido[2,3-b]pyrazin-8-yl]piperidin-3-yl]butanamide] reads > 10000 nM.
As to `C[C@@H]1C[C@H](O)CN(c2ccc(C(F)(F)F)c3ncccc23)C1` (racemic) [Compound 461, cis-5-Methyl-1-(8-trifluoromethyl-quinolin-5-yl)-piperidin-3-ol], the IC50 was < 1000 nM.
In the case of `C[C@H]1C[C@@H](NC(=O)NC2CC2)CN(c2ccc(C(F)(F)F)c3ncccc23)C1` [Compound 518, 1-Cyclopropyl-3-[(3R,5S)-5-methyl-1-(8-trifluoromethyl-quinolin-5-yl)-piperidin-3-yl]-urea] it was < 1000 nM.
For the compound `C[C@H]1C[C@@H](NC2CCN(C)C2=O)CN(c2ccc(Cl)c3ncccc23)C1` (single isomer, unassigned) [Compound 260], the IC50 is < 1000 nM.
In the case of `CC(C(=O)N[C@@H]1C[C@H](C)CN(c2ccc(C(F)(F)F)c3nccnc23)C1)N1CC(N)C1` (single isomer, unassigned) [Compound 369] it was < 1000 nM; in that of `N#Cc1ccc(N2CC(NC(=O)CC3(O)CCCCC3)CC(C(F)(F)F)C2)c2cccnc12` (racemic) [Compound 491], < 1000 nM; in that of `C[C@H]1C[C@@H](NC(=O)CO)CN(c2ccc(Cl)c3ncccc23)C1` [Compound 263, N-[(3R,5S)-1-(8-chloroquinolin-5-yl)-5-methylpiperidin-3-yl]-2-hydroxyacetamide], < 1000 nM.
In the case of `C[C@H]1C[C@@H](NC(=O)CN(C)C)CN(c2ccc(C(F)(F)F)c3nccnc23)C1` [Compound 254, 2-(dimethylamino)-N-[(3R,5S)-5-methyl-1-[8-(trifluoromethyl)quinoxalin-5-yl]piperidin-3-yl]acetamide] it was < 1000 nM.
The result for `CNC(=O)CCC(=O)NC1CC(C(F)(F)F)CN(c2ccc(C#N)c3ncccc23)C1` (racemic) [Compound 492, cis-(N-1-(8-Cyano-quinolin-5-yl)-5-trifluoromethyl-piperidin-3-yl]-N′-methyl-succinamide)] reads 1000 to 10000 nM; that for `C[C@H]1C[C@@H](NC(=O)CC2(O)CCCCC2)CN(c2ccc(C(F)(F)F)c3ncccc23)C1` [Compound 484, 2-(1-Hydroxy-cyclohexyl)-N-[(3R,5S)-5-methyl-1-(8-trifluoromethyl-quinolin-5-yl)-piperidin-3-yl]-acetamide], < 1000 nM.
`C[C@H]1C[C@@H](NCC(=O)N2CCC2)CN(c2ccc(C(F)(F)F)c3ncccc23)C1` [Compound 568, 1-Azetidin-1-yl-2-[(3R,5S)-5-methyl-1-(8-trifluoromethyl-quinolin-5-yl)-piperidin-3-ylamino]-ethanone]: the IC50 is < 1000 nM.
For `N#Cc1ccc(N2CC(NC(=O)CCC(=O)N3CCC3)CC(C(F)(F)F)C2)c2cccnc12` (single isomer, unassigned) [Compound 494], the IC50 is > 10000 nM.
In the case of `N#Cc1ccc(N2CC(N)CC(C3CC3)C2)c2nccnc12` (single isomer, unassigned) [Compound 69, 8-(3-amino-5-cyclopropylpiperidin-1-yl)quinoxaline-5-carbonitrile] it was 1000 to 10000 nM.
In the case of `N#Cc1ccc(N2CCC(C(=O)NCCN3CCOCC3)CC2)c2cccnc12` [Compound 419, 1-(8-Cyano-quinolin-5-yl)-piperidine-4-carboxylic Acid (2-morpholin-4-yl-ethyl)-amide] it was 1000 to 10000 nM; in that of `N#Cc1ccc(N2CCC(CNC(=O)CN3CCC3)CC2)c2cccnc12` [Compound 417, 2-Azetidin-1-yl-N-[1-(8-cyano-quinolin-5-yl)-piperidin-4-ylmethyl]-acetamide], < 1000 nM.
The result for `CCN1CCC[C@H]1C(=O)NC1CC(C(F)(F)F)CN(c2ccc(C#N)c3ncccc23)C1` (single isomer, unassigned) [Compound 438] reads 1000 to 10000 nM.
Take `CCN(CC)C1CCN(CC2CCN(c3ccnc4nccnc34)CC2)CC1` [Compound 4, N,N-diethyl-1-((1-(pyrido[2,3-b]pyrazin-8-yl)piperidin-4-yl)methyl)piperidin-4-amine]: the IC50 fell in the range of 1000 to 10000 nM.
